Data taken from US20240092784A1, “CONDENSED HETEROCYCLIC COMPOUND” (NISSAN CHEMICAL CORPORATION, priority 2020, published 2024).

Biological target: human SPR (Homo sapiens (Human), UniProt P35270)
Test: Evaluation Example 2: Measurement of human SPR inhibitory activity (seven concentrations, sepiapterin absorbance at 420 nm)
Format: biochemical
Conditions: Evaluation Example 2, seven concentrations 0.14 nM to 100 nM, 240 minutes at room temperature, read-out: IC50
Procedure, shortened: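 Reactions ran 240 min at room temperature in 100 mM Tris-HCl pH 7.5 with 0.01% BSA. They contained tag-cleaved, E. coli-expressed full-length human SPR (diluted to 150 ng/mL), seven compound concentrations from 0.14 to 100 nM, and sepiapterin/NADPH added as a 120 μM/160 μM solution. Inhibition was calculated from sepiapterin absorbance at 420 nm.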

Chain of human SPR (P35270 whole entry): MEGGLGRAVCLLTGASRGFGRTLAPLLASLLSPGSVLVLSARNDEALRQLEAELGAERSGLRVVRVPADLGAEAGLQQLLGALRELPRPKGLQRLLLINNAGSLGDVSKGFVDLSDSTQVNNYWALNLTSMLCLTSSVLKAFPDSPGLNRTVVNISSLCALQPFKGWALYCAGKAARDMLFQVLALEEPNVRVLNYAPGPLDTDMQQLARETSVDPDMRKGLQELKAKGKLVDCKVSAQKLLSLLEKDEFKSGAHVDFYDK

CC(C)Cn1c(=O)c(C(=O)NC2CC2)c(O)n2ncc(/C=C/C(=O)N3[C@@H](C)CC[C@@H]3C)c12 [compound 591, N-Cyclopropyl-3-((E)-3-((2S,5S)-2,5-dimethylpyrrolidin-1-yl)-3-oxoprop-1-en-1-yl)-7-hydroxy-4-isobutyl-5-oxo-4,5-dihydropyrazolo[1,5-a]pyrimidine-6-carboxamide] showed an IC50 of 1.29 nM.
For CC(C)Cn1c(=O)c(C(=O)NC2CC2)c(O)n2ncc(/C=C/C(=O)N3[C@H](C)CC[C@@H]3C)c12 [compound 592, N-Cyclopropyl-3-((E)-3-(cis-2,5-dimethylpyrrolidin-1-yl)-3-oxoprop-1-en-1-yl)-7-hydroxy-4-isobutyl-5-oxo-4,5-dihydropyrazolo[1,5-a]pyrimidine-6-carboxamide], the IC50 was 1.46 nM.
Work on CC(C)Cn1c(=O)c(C(=O)NC2CC2)c(O)n2ncc(/C=C/C(=O)N3CCc4cccnc43)c12 [compound 594, (E)-N-Cyclopropyl-3-(3-(2,3-dihydro-1H-pyrrolo[2,3-b]pyridin-1-yl)-3-oxoprop-1-en-1-yl)-7-hydroxy-4-isobutyl-5-oxo-4,5-dihydropyrazolo[1,5-a]pyrimidine-6-carboxamide] yielded an IC50 of 2.01 nM.
Molecule CC(C)Cn1c(=O)c(C(=O)NC2CC2)c(O)n2ncc(/C=C/C(=O)N3[C@H](C)CCC[C@@H]3C)c12 [compound 597, N-Cyclopropyl-3-((E)-3-(cis-2,6-dimethylpiperidin-1-yl)-3-oxoprop-1-en-1-yl)-7-hydroxy-4-isobutyl-5-oxo-4,5-dihydropyrazolo[1,5-a]pyrimidine-6-carboxamide] has an IC50 of 1.62 nM.
For CC(C)Cn1c(=O)c(C(=O)NC2CC2)c(O)n2ncc(/C=C/C(=O)N3CC[C@H](C(C)(C)O)C3)c12 [compound 598, (S,E)-N-Cyclopropyl-7-hydroxy-3-(3-(3-(2-hydroxypropan-2-yl)pyrrolidin-1-yl)-3-oxoprop-1-en-1-yl)-4-isobutyl-5-oxo-4,5-dihydropyrazolo[1,5-a]pyrimidine-6-carboxamide], the IC50 was 1.2 nM.
Molecule CC(C)Cn1c(=O)c(C(=O)NC2CC2)c(O)n2ncc(/C=C/C(=O)N3CCC[C@@H]3C(C)C)c12 [compound 599, (R,E)-N-Cyclopropyl-7-hydroxy-4-isobutyl-3-(3-(2-isopropylpyrrolidin-1-yl)-3-oxoprop-1-en-1-yl)-5-oxo-4,5-dihydropyrazolo[1,5-a]pyrimidine-6-carboxamide] has an IC50 of 1.27 nM.
For CC(C)Cn1c(=O)c(C(=O)NC2CC2)c(O)n2ncc(/C=C/C(=O)N3CCC[C@H]3C(C)C)c12 [compound 600, (S,E)-N-Cyclopropyl-7-hydroxy-4-isobutyl-3-(3-(2-isopropylpyrrolidin-1-yl)-3-oxoprop-1-en-1-yl)-5-oxo-4,5-dihydropyrazolo[1,5-a]pyrimidine-6-carboxamide], the IC50 was 1.47 nM.
CC(C)Cn1c(=O)c(C(=O)NC2CC2)c(O)n2ncc(/C=C/C(=O)N3CCC[C@@H]3C(F)F)c12 [compound 601, (R,E)-N-Cyclopropyl-3-(3-(2-(difluoromethyl)pyrrolidin-1-yl)-3-oxoprop-1-en-1-yl)-7-hydroxy-4-isobutyl-5-oxo-4,5-dihydropyrazolo[1,5-a]pyrimidine-6-carboxamide] was tested, and the IC50 was 1.08 nM.
Work on CC(C)Cn1c(=O)c(C(=O)NC2CC2)c(O)n2ncc(/C=C/C(=O)N3CCOC[C@H]3c3ccccc3)c12 [compound 602, (R,E)-N-Cyclopropyl-7-hydroxy-4-isobutyl-5-oxo-3-(3-oxo-3-(3-phenylmorpholino)prop-1-en-1-yl)-4,5-dihydropyrazolo[1,5-a]pyrimidine-6-carboxamide] yielded an IC50 of 1.14 nM.
In the case of CC(C)Cn1c(=O)c(C(=O)NC2CC2)c(O)n2ncc(/C=C/C(=O)N3CCC[C@H]3c3cccnc3)c12 [compound 603, (S,E)-N-Cyclopropyl-7-hydroxy-4-isobutyl-5-oxo-3-(3-oxo-3-(2-(pyridin-3-yl)pyrrolidin-1-yl)prop-1-en-1-yl)-4,5-dihydropyrazolo[1,5-a]pyrimidine-6-carboxamide], the IC50 is reported as 1.1 nM.
